Data published in publication PMC11054132, “Neuroprotective Effects of Chemical Constituents of Leaves of Euonymus hamiltonianus Wall” (Plants, 2024).
Entries after “also recorded” stand apart in the source; their conditions may differ. Like-named read-outs stand apart in the source and are kept apart here.

What was measured:
[1] = Cytotoxicity (MTT assay) in BV-2 microglial cells; assay type: cell-based; conditions: mouse
[2] = Storage stability of isolated compound by LC-MS; assay type: physicochemical; conditions: stored 27 days (compound 2) or a significant length of time (compound 1), dried powder and DMSO solution
Experimental: In this study, qualitative profile analysis was performed on the 30% EtOH crude extract of the leaves of E. hamiltonianus using HPLC. The isolated phytochemicals, 1–14, were used as standards and compared to the crude extract profile represented by a high-performance liquid chromatogram (Figure 3). […] With comparative UV area normalization, compound 2 was confirmed as a pure compound initially when isolated (Figure S3.8). […] For reconfirmation, LC-MS analyses of both the dried powdered form of the compound when isolated and the compound in DMSO solution were performed (Figure S3.9), both sets of results showing signs of degradation. Compound 2 was degraded into three separate peaks, and the original compound 2 indicated by m/z 759.2 was verified by LC-MS analysis, and the peaks of 2a and 2b were indicated by m/z 465.1 and 627, respectively. […] Due to the close resemblance of compound 2 to compound 1, it was investigated in the same manner after a significant length of time.

[3] = system: NO production in LPS-activated BV-2 microglial cells; test: NO production (Griess reaction) in LPS-stimulated BV-2 microglial cells; assay type: cell-based, mouse; conditions: for IC50: Mus musculus, BV-2, BV-2 microglial cells, pretreated 1 h, 100 ng/mL LPS (footnote 24 h; text 12 h), means ± SDs (n = 3)
Experimental: The anti-inflammatory effects of the fourteen compounds (1–14) isolated from E. hamiltonianus were evaluated in activated BV-2 microglial cells by the production of NO and proinflammatory cytokines. […] […] The compounds were continuously assessed to determine whether they suppressed the expression of iNOS and COX-2 in LPS-stimulated BV-2 microglial cells. The cells were stimulated with LPS in the presence of these compounds at various concentrations, and the expression levels of iNOS and COX-2 were determined by Western blotting. […] Thus, compound 3 may be considered a potential anti-inflammatory agent.
For the Aβ-Hela-APPsw model, Hela cells were stably transfected with an APP carrying the Swedish mutation (APPsw) using BioT (Bioland Scientific LLC, Paramount, CA, USA) according to the manufacturer’s instructions, which was provided by Prof. Tae-Wan Kim (Department of Pathology, Columbia University of Medical Center, New York, NY 10032, USA). APPsw-transfected HeLa cells were grown in DMEM supplemented with 10% fetal bovine serum (FBS; Thermo Fisher Scientific, Lafayette, CA, USA), 1% penicillin/streptomycin (Thermo Fisher Scientific, Lafayette, CA, USA), 260 μg/mL Zeocin, and 400 μg/mL G418. The cells were maintained at 37 °C under a humidified atmosphere of 5% CO2. The stock sample solution was dissolved in DMSO and kept at −20 °C and diluted to the final concentration in fresh medium before each experiment. […] The EZ-Cytox kit (DAEILLAB, Cheongwon, Republic of Korea) was applied to detect the cell viability, following the manufacturer’s instructions, and measurements were taken by a microplate reader (BIO-TEK® Dower-Wave; BioTek, Winooski, VT, USA) under absorbance at 450 nm. The results were presented as the percentage of MTT reduction, compared with the control group as 100%. For the LPS-induced microglia model, the BV-2 mouse microglia cell line was provided by Prof. Lee Sung Jung’s research team in the College of Medicine, Seoul National University, and was cultured in DMEM-F12 with 5% FBS and 1% penicillin/streptomycin at 37 °C under a humidified atmosphere containing 5% CO2. And the cell viability assay was performed using the Aβ-Hela-APPsw model.
[…] The media were collected and centrifuged at 13,000 rpm for the removal of dead cells. The supernatants were collected and mixed with an equal volume (50 μL) of Griess reagents (1% sulfanilamide and N-(1-naphthyl) ethylenediamine dihydrochloride in 2.5% H3PO4) for 5 min at room temperature, and the Nitric Oxide concentration was measured at 540 nm using a microplate reader and compared with the sodium nitrite standard curve.

[4] = system: Aβ42 production in APPsw-transfected HeLa cells; test: Aβ42 production (ELISA kit) in APPsw-transfected HeLa cells; assay type: cell-based; conditions: for IC50: 8 h, APPsw-transfected HeLa cells, means ± SDs (n = 3)
Experimental: APPsw-transfected HeLa cells were cultured with the isolated compounds or DMSO in Dulbecco’s modified Eagle medium (DMEM, Welgene, Gyeongsan-si, Republic of Korea) for 8 h, and then the cell culture supernatants were collected for the following analyses. For the detection of Aβ secretion, kits for Aβ42 (KHB3442) and Aβ40 (KHB3482) were purchased from the Invitrogen Company and used according to the supplier’s instructions.
For the Aβ-Hela-APPsw model, Hela cells were stably transfected with an APP carrying the Swedish mutation (APPsw) using BioT (Bioland Scientific LLC, Paramount, CA, USA) according to the manufacturer’s instructions, which was provided by Prof. Tae-Wan Kim (Department of Pathology, Columbia University of Medical Center, New York, NY 10032, USA). APPsw-transfected HeLa cells were grown in DMEM supplemented with 10% fetal bovine serum (FBS; Thermo Fisher Scientific, Lafayette, CA, USA), 1% penicillin/streptomycin (Thermo Fisher Scientific, Lafayette, CA, USA), 260 μg/mL Zeocin, and 400 μg/mL G418. The cells were maintained at 37 °C under a humidified atmosphere of 5% CO2. The stock sample solution was dissolved in DMSO and kept at −20 °C and diluted to the final concentration in fresh medium before each experiment. For the cell viability assay, Hela cells were cultured in 96-well plates for 24 h and then various concentrations of comp 27 (0–10 μM) were treated for 12 h. The EZ-Cytox kit (DAEILLAB, Cheongwon, Republic of Korea) was applied to detect the cell viability, following the manufacturer’s instructions, and measurements were taken by a microplate reader (BIO-TEK® Dower-Wave; BioTek, Winooski, VT, USA) under absorbance at 450 nm. The results were presented as the percentage of MTT reduction, compared with the control group as 100%. For the LPS-induced microglia model, the BV-2 mouse microglia cell line was provided by Prof. Lee Sung Jung’s research team in the College of Medicine, Seoul National University, and was cultured in DMEM-F12 with 5% FBS and 1% penicillin/streptomycin at 37 °C under a humidified atmosphere containing 5% CO2. And the cell viability assay was performed using the Aβ-Hela-APPsw model.

iNOS = test: Western blot of LPS-induced iNOS expression in BV-2 microglial cells; assay type: cell-based, mouse; conditions: LPS-stimulated BV-2 microglial cells, various concentrations (1.0, 2.0, 4.0 µM)
Experimental: The anti-inflammatory effects of the fourteen compounds (1–14) isolated from E. hamiltonianus were evaluated in activated BV-2 microglial cells by the production of NO and proinflammatory cytokines. BV-2 microglial cells were stimulated with 0.1 µg/mL LPS for 12 h in the presence of the compounds at various concentrations, and the levels of NO in the culture supernatants were measured using Griess reactions. […] The compounds were continuously assessed to determine whether they suppressed the expression of iNOS and COX-2 in LPS-stimulated BV-2 microglial cells. The cells were stimulated with LPS in the presence of these compounds at various concentrations, and the expression levels of iNOS and COX-2 were determined by Western blotting. […] Thus, compound 3 may be considered a potential anti-inflammatory agent.
The total protein samples (10 μg) were loaded in sodium dodecyl sulfate polyacrylamide gel electrophoresis (SDS–PAGE) gels with 10% acrylamide/bis and transferred to polyvinylidene difluoride membranes (Millipore, Burlington, MA, USA). Then, the membranes were blocked with 5% silky milk dissolved in TBST (Tris Buffered saline Tween) for 1 h under room temperature and incubated overnight at 4 °C with specific primary antibodies (1:1000). After being washed with TBST, the membranes were incubated with secondary HRP-conjugated IgG (1:2000) at room temperature for 1 h and visualized using enhanced chemiluminescence (ECL) reagents (Thermo Fisher Scientific, Lafayette, CA, USA). Densitometry analysis of the bands was performed with the fusion solo system (Vilber, Paris, France). The band densities were determined as the intensities of protein by TotalLab TL120 software v2009 (TotalLab, Newcastle, UK).

[5] = BV-2 microglial cells, MTT assay, read-out: IC50 Value (µM) Cytotoxicity

SMILES	IC50 at 12 h [1, 5] [µM]	IC50 [3] [µM]	IC50 ([4]; Homo sapiens, HeLa) [µM]	also measured
COc1cc(-c2oc3cc(O[C@@H]4O[C@H](CO)[C@@H](O)[C@H](O)[C@H]4O)cc(O)c3c(=O)c2O[C@@H]2O[C@H](CO)[C@@H](O)[C@H](O)[C@H]2O[C@@H]2OC[C@@H](O)[C@H](O)[C@H]2O)ccc1O [Compound 1, isorhamnet-in-3-O-(2″-O-(β-D-xylopyranosyl)-β-D-glucopyranoside)-7-O-β-D-glucopyranoside]	> 100	> 100	–	Degradation on storage (in words) [2]: did not show any sign of degradation
O=c1c(O[C@@H]2O[C@H](CO)[C@@H](O)[C@H](O)[C@H]2O)c(-c2ccc(O)c(O)c2)oc2cc(O)cc(O)c12 [Compound 7, isoquercetin]	> 100	> 100	–	–
O=c1c(O[C@@H]2O[C@H](CO)[C@@H](O)[C@H](O)[C@H]2O[C@@H]2OC[C@@H](O)[C@H](O)[C@H]2O)c(-c2ccc(O)c(O)c2)oc2cc(O[C@@H]3O[C@H](CO)[C@@H](O)[C@H](O)[C@H]3O)cc(O)c12 [Compound 2, quercetin-3-O-(2″-O-(β-D-xylopyranosyl)-β-D-glucopyranoside)-7-O-β-D-glucopyranoside]	> 100	> 100	> 100	Degradation on storage (in words) [2]: showed signs of degradation
COC(=O)/C=C/c1ccc(O)c(O[C@@H]2O[C@H](CO)[C@@H](O)[C@H](O)[C@H]2O)c1 [Compound 13, methyl trans-3-O-(β-D-glucopyranosyl) caffeate]	> 100	> 100	53.1 to 65.4	IC50 [4]: 65.4 ± 6.71 µM; Inhibitory effect on Aβ production (in words) ([4]; Hela-swAPP cells): reduced Aβ levels
COc1cc2c(OC)c3c(c(-c4ccc5c(c4)OCO5)c2cc1OC)C(=O)OC3 [Justicidine A, reference compound]	–	–	–	IC50 [4]: 1 ± 0.043 µM
O=c1occc2c(O)cc(O)cc12 [Compound 11, 5,7-dihydroxyisocoumarin]	> 100	> 100	–	–
COc1cc(-c2oc3cc(O[C@@H]4O[C@H](CO)[C@@H](O)[C@H](O)[C@H]4O)cc(O)c3c(=O)c2O[C@@H]2O[C@H](CO)[C@@H](O)[C@H](O)[C@H]2O)ccc1O [Compound 5, isorhamnetin-3,7-di-O-β-D-glucopyranoside]	> 100	> 100	–	–
O=C(O)/C=C/c1ccc(O)c(O[C@@H]2O[C@H](CO)[C@@H](O)[C@H](O)[C@H]2O)c1 [Compound 12, caffeic acid trans-3-O-β-D-glucopyranoside]	> 100	> 100	> 100	–
COc1cc([C@H]2OC[C@H]3[C@@H]2CO[C@@H]3c2cc(OC)c(O[C@@H]3O[C@H](CO)[C@@H](O)[C@H](O)[C@H]3O)c(OC)c2)cc(OC)c1O[C@@H]1O[C@H](CO)[C@@H](O)[C@H](O)[C@H]1O [Compound 9, liriodendrin]	–	–	–	IC50 at 12 h [1]: > 100 µM
OC[C@H]1O[C@@H](OC[C@H]2O[C@@H](OCc3ccccc3)[C@H](O)[C@@H](O)[C@@H]2O)[C@H](O)[C@@H](O)[C@@H]1O [Compound 14, benzyl gentiobioside]	> 100	17.4 ± 2.77	53.1 to 65.4	LPS-induced iNOS protein expression (in words) (iNOS): suppressed; also recorded: effectively downregulated; Inhibitory effect on NO production (in words) ([3]; LPS-stimulated BV-2 microglial cells): effectively downregulated; also recorded: good inhibitory effects
O=c1c(O[C@@H]2O[C@H](CO)[C@@H](O)[C@H](O)[C@H]2O)c(-c2ccc(O)c(O[C@@H]3O[C@H](CO)[C@@H](O)[C@H](O)[C@H]3O)c2)oc2cc(O)cc(O)c12 [Compound 8, quercetin-3,3′-di-O-β-D-glucopyranoside]	> 100	> 100	–	–
CCCCOC(=O)C(CC(=O)O)OC(=O)C=Cc1ccc(O)cc1 (stereo not shown) [Compound 10, p-coumaroylmalic acid 1-butyl ester]	> 100	> 100	–	–
C[C@@H]1C[C@H]2[C@@H]3CCC4=CC(=O)C=C[C@]4(C)[C@@]3(F)[C@@H](O)C[C@]2(C)[C@@]1(O)C(=O)CO [Dexamethasone, reference compound]	> 100	1.24 ± 0.104	–	–
O=c1c(O[C@@H]2O[C@H](CO)[C@@H](O)[C@H](O)[C@H]2O[C@@H]2OC[C@@H](O)[C@H](O)[C@H]2O)c(-c2ccc(O)c(O)c2)oc2cc(O)cc(O)c12 [Compound 6, quercetin-3-O-sambubioside]	> 100	> 100	> 100	–
